Patent publication US20250354127A1, “CRYOPRESERVED DAIRY GOAT SEMEN METABOLITE SCREENING AND DILUENT PREPARATION METHOD” (NORTHWEST A&F UNIVERSITY, priority 2024, published 2025)
Marks after values point to notes of the source that are not given here.

Tests used:
dairy goat sperms = assay: Sperm viability and motility by CASA semen assisted analysis during preservation at 4 degrees C.; type: cell-based
Experimental: 1) prepare base diluent: add 30.3 g/L Tris, 16.0 g/L citric acid, 6.4 g/L glucose, 6.4 g/L D-fructose, 2.5 g/L trehalose, 1.0 g/L BSA and 3.75 g/L soybean lecithin into distilled water to 1 L, dissolve in a water bath for 1 hour at 37 degrees C., filter and sterilize, and then add 1 million IU/L penicillin and 1 million IU/L streptomycin; select semen with motility more than 80% for preservation, and keep diluent warm in a water bath at 37 degrees C. before semen dilution; gradually dilute at the dilution ratio (add the diluent into each group of semen along the tube wall during the operation), dilute the semen with the diluent at 1:1 and stand for 3 minutes, then dilute the semen with the diluent at 1:3 and stand for 3 minutes, and let the ratio of semen to diluent reach 1:7 (keep the temperature at 33-35 degrees C. during dilution); bind a centrifuge tube containing the diluted semen with a rubber band and put the centrifuge tube into a beaker containing isothermal water, keep the centrifuge tube vertical and the water level in the beaker higher than the diluent level of in the centrifuge tube, place for 1 hour at room temperature, put the beaker into a refrigerator at 4 degrees C., keep the cooling rate at 8-10 degrees C./h, and shake the centrifuge tube every 8 hours to prevent the sperms from accumulating, sinking to bottom and resulting in death;
2) take 5 μL of semen on the days 0, 1, 3 and 5 of semen preservation, put the semen on slides, preheat an objective table and perform microscopic examination at 37 degrees C., and detect semen motility and viability by Meilan CASA semen assisted analysis system; select at least five random fields of view for determination, with a minimum semen count of 200 in each field; the ratio of number of live sperms to total number of sperms is sperm viability, and the ratio of number of linearly moving sperms to total number of sperms is sperm motility. Average the results, and record the test data (see Table 1);
(§1) 1) add different concentrations of gamma-aminobutyric acids into a tupping ram semen base diluent, and take a group without gamma-aminobutyric acid added as the control group; take a group with gamma-aminobutyric acid added as the experimental group, the addition concentrations are respectively 0.5 g/L, 1.0 g/L, 1.5 g/L and 2.0 g/L, and six duplications exist in each group; screen out the optimal concentration of gamma-aminobutyric acid according to semen quality indexes, set the optimal concentration to T group, and detect the semen membrane and acrosome integrity, various antioxidant enzyme activities and ROS content change after adding the optimal concentration of gamma-aminobutyric acid;

[1] = Sperm plasma membrane integrity (PMI) by SYBR-14/PI fluorescence staining; type: cell-based, dairy goat
Excerpt: as §1

tupping ram sperms = assay: Sperm acrosome integrity (CGI) by FITC-PNA fluorescence staining; type: cell-based, dairy goat
Excerpt: as §1

sperms = assay: Antioxidant indexes of sperms (T-AOC, SOD, GSH-Px, MDA, CAT, ROS) by Solarbio kits; type: cell-based, dairy goat
Excerpt: as §1

[2] = 0.5 g/L in base diluent, Day 5 at 4 degrees C.
[3] = 1.0 g/L in base diluent, Day 5 at 4 degrees C.
[4] = 1.5 g/L in base diluent, Day 5 at 4 degrees C.
[5] = 2.0 g/L in base diluent, Day 5 at 4 degrees C.
[6] = experimental group, day 5 of preservation at 4 degrees C.
[7] = optimal concentration (T group), day 3 of preservation at 4 degrees C., P<0.05
[8] = preservation day not given, P<0.05

## NCCCC(=O)O [gamma-aminobutyric acid, Gamma-aminobutyric acid]
Dairy goat sperms; 0.5 g/L in base diluent, Day 0
  Semen motility %: 81.36 ± 2.05%
  Sperm viability %: 84.12 ± 2.15%
Dairy goat sperms; [2]
  Semen motility %: 50.69 ± 1.05^b %
  Sperm viability %: 52.45 ± 1.22^b %
Dairy goat sperms; 1 g/L
  Sperm motility compared with other addition groups: higher than those in other addition groups
  Sperm viability compared with other addition groups: higher than those in other addition groups
Dairy goat sperms; 1.0 g/L in base diluent, Day 0
  Semen motility %: 81.36 ± 2.05%
  Sperm viability %: 84.12 ± 2.15%
Dairy goat sperms; [3]
  Semen motility %: 53.69 ± 0.84^a %
  Sperm viability %: 56.49 ± 1.32^a %
Dairy goat sperms; 1.5 g/L in base diluent, Day 0
  Semen motility %: 81.36 ± 2.05%
  Sperm viability %: 84.12 ± 2.15%
Dairy goat sperms; [4]
  Semen motility %: 47.32 ± 2.41^c %
  Sperm viability %: 50.52 ± 2.74^b %
Dairy goat sperms; 2.0 g/L in base diluent, Day 0
  Semen motility %: 81.36 ± 2.05%
  Sperm viability %: 84.12 ± 2.15%
Dairy goat sperms; [5]
  Semen motility %: 45.55 ± 1.52^d %
  Sperm viability %: 45.36 ± 2.31^c %
[1]; [6]
  Plasma membrane integrity of sperms: 58.93%
[1]; [7]
  Plasma membrane integrity of sperms, T group vs NC group: significantly higher
Tupping ram sperms; [6]
  Acrosome integrity of sperms: 60.12%
Tupping ram sperms; [7]
  Acrosome integrity of sperms, T group vs NC group: significantly higher
sperms; day 1 of preservation
  GSH-Px, T group vs NC group: not significantly different
  MDA, T group vs NC group: not significantly different
  T-AOC, T group vs NC group: not significantly different
sperms; day 1 of preservation, P<0.05
  CAT enzyme activity, T group vs NC group: significantly increased
  Level of ROS, T group vs NC group: significantly decreased
  SOD enzyme activity, T group vs NC group: significantly increased
sperms; [8]
  Level of CAT, T group vs NC group: significantly higher
  Level of GSH-Px, T group vs NC group: significantly higher
  Level of MDA, T group vs NC group: significantly lower
  Level of ROS, T group vs NC group: significantly lower
  Level of SOD, T group vs NC group: significantly higher
  Level of T-AOC, T group vs NC group: significantly higher
